# Reference: patent US20130023491A1, “BETA-CELL REPLICATION PROMOTING COMPOUNDS AND METHODS OF THEIR USE” (President and Fellows of Harvard College, priority 2009, published 2013)
# Like-named read-outs stand apart in the source and are kept apart here.
# Legend:
# [1] = test system: β-cells (dispersed rat islet cells); test: primary islet β-cell replication assay (PDX-1/ki-67 co-staining, automated imaging); assay type: cell-based
# Description: Rat islets were isolated as previously described in Gotoh M, Maki T, Kiyoizumi T, Satomi S, Monaco A P: An improved method for isolation of mouse pancreatic islets. Transplantation 40:437-438, 1985, contents of which are herein incorporated by reference in their entirety. Isolated islets were cultured overnight in a tissue culture incubator. The following morning, islets were trypsinized into cellular clusters of 1-3 cells, re-suspended in islet media (Mediatech 99-786-CV; 10% FBS serum (Valley Biomedial BS3033); 8.3 mM Glucose (Sigma G7528); 1× Penicillin/Streptomycin (Invitrogen 15070-063); 1× Glutamax (Invitrogen 35050-079)) and plated into the wells of a 96-well plate (Sigma CLS3904) that had been coated with 804G (a rat bladder carcinoma cell line) conditioned media. The cellular plating density was 60 k cells/well and greater than 95% viability was confirmed at the time of plating. […] For screening, compounds were tested at 1 uM concentration in duplicate. After 24-hours of compound treatment, cells were fixed with fresh 4% PFA (Electron Microscopy Services 15710) for 20 minutes and washed with PBS (VWR 45000-446). Antigen retrieval was performed by heating the cells to 90 degrees Celsius in 0.1 mM EDTA (Ambion AM9260G) in PBS. Cells were then washed and permeabalized with PBS/0.3% Triton X-100 (J.T.Baker X198-07) for 15 minutes. Immunocytochemical staining was then performed as follows. Antigen blocking was performed with 5% normal donkey serum (Jackson ImmunoResearch 017-000-121) in PBS for an hour. Staining was performed by overnight incubation with primary antibody at 4 degrees Celsius. For the primary screen, PDX-1 antibody (R&D AF2419) was used to reveal beta-cells and ki-67 antibody (BD Bioscience 556003) to visualize proliferating cells. Without wishing to be bound by theory, the failure of prior beta-cell replication screens is primarily a consequence of using a cytoplasmic marker (Insulin) as the β-cell identifier. The use of a cytoplasmic marker prevents accurate attribution of nuclear replication to a specific cell identity i.e., in dense culture it is impossible to attribute a cytoplasm to a specific nucleus given the proximity to multiple nuclei. Additional Immunohistochemistry antibodies included Phosphohistone 3 (Millipore 06-570), Insulin (Dako A0564), Glucagon (Millipore 4031-01F) and Vimentin (Millipore ab5733). For western blotting anti-bodies included ADK (Abcam ab38010, ab64825) and RAN (BD Bioscience 610340) as a loading control.
# Once compound-treated islet cells were stained, β-cell replication was assessed via automated image acquisition and analysis using a Cellomics ArrayScanVTI. The acquisition thresholds/parameters were established such that the computer-based calls of replication events were consistent with human-based calls. The parameters used were directed at the identification of (1) PDX-1+ cells and (2) ki-67 positive staining within the PDX-1 positive area. The algorithm was a three step process. First the nuclear area was predicted by the software based upon the expected PDX-1 staining pattern. Second PDX-1 positive cells (selected objects) were counted based upon the average staining intensity within the predicted nuclear area (Note: total signal intensity was essentially equal in quality but was not typically used). Third, the number of PDX-1 positive cells (selected objects) that simultaneously were Ki-67 positive was determined by determining the average fluorescence intensity of ki-67 staining within the predicted nuclear area (again, total intensity was also occasionally used with equal efficacy). The specific thresholds (fluorescence intensities) varied from experiment to experiment. In general, the basal replication rate was set at roughly 1% i.e., the algorithm was varied until 1% of DMSO treated PDX+ cells were reported to be double positive for PDX-1 and ki67. […]
# mouse dermal fibroblasts = test: Ki-67 proliferation of mouse dermal fibroblasts; assay type: cell-based; settings: A10 0.019-10 uM
# Description: Using a protocol similar to as described in Example 1, β-cells or mouse dermal fibroblasts were treated with 10 uM, 5 uM, 2.5 uM, 1.25 um, 0.625 uM, 0.3125 uM, 0.156 uM, 0.078 uM, 0.04 uM, or 0.019 uM of A10.
smiles,measurement,setting,value
"Nc1ncnc2c1c(I)cn2[C@@H]1O[C@H](CO)[C@@H](O)[C@H]1O [A10, 5-iodotubercidin]",induction of β-cell replication in the screening assay,"[1]; 1 uM, 24 hours",2.3 fold
same,"induction of the replication rate above the base-line rate, combination with high glucose",[1]; 5-IT 2 μM plus high glucose,5 fold
same,β-cell replication effect of addition of 5-IT to the GLP-1R agonists,"[1]; 24 h, 5-IT 2 μM plus GLP-1 or Ex-4",~4 fold
same,increase of β-cell replication,"[1]; 24 h, 5-IT 2 μM, GLP-1 and Ex-4 20 nM and 4 nM, normalized to DMSO",~2.5 fold
same,effect of glucose concentration on % beta-cell replication in treated samples,"[1]; A10 2 μM, 0-25 mM glucose",little effect
same,% Ki-67 positive cells versus serum concentration,"[1]; A10 2 μM, 0.2%, 2.0% or 20% serum",increased with increasing serum concentration
same,"% of Ki-67 positive β-cells (PDX-1 and Ki-67 positive cells), dose curve","[1]; A10 0.019-10 uM, B8 0.23-30 uM",increase in a dose dependent manner
same,EC50,"[1]; FIG. 13c dose-response curves, read-out: EC50, β-cell proliferation in rat islet cultures",4700 nM
same,EC50,"[1]; dose curves FIG. 2a (A10) and FIG. 3 (B8), Ki-67 positive β-cells, read-out: EC50 for β-cell proliferation",470 nM
same,% Ki-67 positive mouse dermal fibroblasts,mouse dermal fibroblasts,did not change
